In this experiment the target is T1, TRAP1 enzyme (Homo sapiens, UniProt Q12931).
T1 sequence (Q12931 60-704): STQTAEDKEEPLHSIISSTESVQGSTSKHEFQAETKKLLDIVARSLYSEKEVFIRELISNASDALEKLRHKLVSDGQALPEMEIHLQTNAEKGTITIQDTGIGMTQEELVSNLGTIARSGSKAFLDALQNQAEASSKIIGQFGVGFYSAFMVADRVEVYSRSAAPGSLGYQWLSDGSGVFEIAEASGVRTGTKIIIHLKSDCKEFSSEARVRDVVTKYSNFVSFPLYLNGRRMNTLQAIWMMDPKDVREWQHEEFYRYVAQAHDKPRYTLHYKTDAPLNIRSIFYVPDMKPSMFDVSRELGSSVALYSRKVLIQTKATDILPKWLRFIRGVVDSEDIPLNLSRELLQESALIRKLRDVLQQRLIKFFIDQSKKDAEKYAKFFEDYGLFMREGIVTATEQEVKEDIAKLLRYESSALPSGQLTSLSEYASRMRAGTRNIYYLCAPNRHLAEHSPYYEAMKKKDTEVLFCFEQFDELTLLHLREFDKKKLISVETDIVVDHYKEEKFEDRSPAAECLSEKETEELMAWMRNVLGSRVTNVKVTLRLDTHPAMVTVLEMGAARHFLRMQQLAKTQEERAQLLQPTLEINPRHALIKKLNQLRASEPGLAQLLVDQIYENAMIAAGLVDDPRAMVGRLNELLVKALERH
Kind of experiment: ADP Glo assay of TRAP1 ATPase activity. The experiment is classed as biochemical. To be noted: for EC50: TRAP1 ATPase activation, 150 nM Trap1, 20 μM ATP, geometric mean, read-out: ADP GLO DRC: GeoMean EC50; for Emax: read-out: ADP GLO DRC: Mean Emax. A digest of the protocol: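 150 nM TRAP1 preincubated with compound (0.79–100 μM) 30 min at 37° C in Pipes pH 7.5 buffer (0.05 mM MgCl2, 40 mM KCl), then 20 μM ATP added for 60 min at 37° C. ADP quantified by ADP-Glo luminescence against ATP/ADP standard curve. Emax and EC50 from sigmoidal fit.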
(In general: ADP-Glo turns the ADP formed in a reaction into a luminescent signal.)

Bounds are passed on as bounds.

What is called EC50 is the concentration needed to bring the measured effect to its halfway point. A word on the Emax: it is the maximal effect, on the per cent scale that the assay sets.

As to `COc1ccc(NC(=O)c2cccnc2-c2ccccc2C)cc1S(=O)(=O)Nc1c(C)cccc1C` [Compound 1053], the EC50 fell in the range of 20 to 100 µM and the Emax is 160 to 199%.
For `COc1ccc(NC(=O)c2cnc(-c3ccccc3)[nH]2)cc1S(=O)(=O)N(CCCCCCN)c1ccc(Br)cc1` [Compound 454, N-(3-(N-(6-aminohexyl)-N-(4-bromophenyl)sulfamoyl)-4-methoxyphenyl)-2-phenyl-1H-imidazole-5-carboxamide], in that order: less than 10 µM and 160 to 199%.
For the compound `O=C(Nc1ccc(F)c(S(=O)(=O)Nc2ccc(Cl)cc2)c1)c1cnc(Cl)cc1Cl` [Compound 815], the EC50 is 10 to 20 µM and the Emax fell in the range of 123 to 159%.
For `O=C(Nc1ccc(F)c(S(=O)(=O)Nc2ccc(Cl)cc2)c1)c1cnccc1-c1ccccc1` [Compound 770], the EC50 was in the range of 20 to 100 µM and the Emax is 160 to 199%.
Take `Cc1noc(C(C)C)c1C(=O)Nc1ccc(F)c(S(=O)(=O)Nc2ccc(Cl)cc2)c1` [Compound 751]: the concentration for a half-maximal effect (EC50) was in the range of 10 to 20 µM and the Emax was in the range of 160 to 199%.
For the compound `COc1ccc(NC(=O)c2nc(-c3ccccc3)oc2C)cc1S(=O)(=O)Nc1c(C)cccc1C` [Compound 1139], the EC50 was less than 10 µM and the maximum response (Emax) lay within 123 to 159%.
For `CCOc1ncccc1C(=O)Nc1ccc(F)c(S(=O)(=O)Nc2ccc(Cl)cc2)c1` [Compound 704], the half-maximal effective concentration (EC50) is 10 to 20 µM and the Emax is 200 to 300%.
For the compound `COc1ccc(NC(=O)c2scc(C)c2Cl)cc1S(=O)(=O)Nc1c(C)cccc1C` [Compound 1128], the concentration for a half-maximal effect (EC50) was less than 10 µM and the Emax fell in the range of 160 to 199%.
For the compound `COc1ccc(NC(=O)c2ncc(-c3ccccc3)o2)cc1S(=O)(=O)Nc1sc2c(c1C#N)CCCC2` [Compound 1671], the EC50 is 10 to 20 µM and the Emax lay in the range of 160 to 199%.
In the same order, the values of `COc1ccc(NC(=O)c2ncc(-c3ccccc3)o2)cc1S(=O)(=O)Nc1ccc(C)nc1F` [Compound 1684] are 20 to 100 µM and 123 to 159%.
For `COc1ccc(NC(=O)c2cccnc2-c2ccc(C)cc2)cc1S(=O)(=O)Nc1c(C)cccc1C` [Compound 1045], in that order: 10 to 20 µM and 123 to 159%.
Turning to `COc1ccc(NC(=O)c2coc(-c3cc(F)c(F)c(F)c3)n2)cc1S(=O)(=O)Nc1c(C)csc1C` [Compound 2415], the 50% effective concentration (EC50) was less than 10 µM and the maximum response (Emax) is 123 to 159%.
Turning to `COc1ccc(NC(=O)c2cc(C)nc3onc(C)c23)cc1S(=O)(=O)Nc1c(C)cccc1C` [Compound 1226], the EC50 lay in the range of 20 to 100 µM and the Emax is 123 to 159%.
For `COc1ccc(NC(=O)c2cccc(-c3csc(C)n3)c2)cc1S(=O)(=O)Nc1c(C)cccc1C` [Compound 1290], the EC50 was less than 10 µM and the maximum response (Emax) was 160 to 199%.
As to `COc1ccc(NC(=O)c2cc(C(C)C)on2)cc1S(=O)(=O)Nc1c(C)cccc1C` [Compound 1032], the half-maximal effective concentration (EC50) is less than 10 µM and the maximum response (Emax) is 200 to 300%.
As for `O=C(Nc1ccc(F)c(S(=O)(=O)Nc2ccc(Cl)cc2)c1)c1nccnc1C(F)(F)F` [Compound 710], the 50% effective concentration (EC50) fell in the range of 10 to 20 µM and the Emax lay within 123 to 159%.
For the compound `COc1ccc(NC(=O)c2cnc(Cl)s2)cc1S(=O)(=O)Nc1c(C)cccc1C` [Compound 1070], the half-maximal effective concentration (EC50) was less than 10 µM and the Emax was in the range of 200 to 300%.
Take `O=C(Nc1ccc(F)c(S(=O)(=O)Nc2ccc(Cl)cc2)c1)c1cnccc1C(F)(F)F` [Compound 784]: the EC50 lay in the range of 20 to 100 µM and the Emax was 123 to 159%.
Regarding `COc1ccc(NC(=O)c2ncc(OC(F)F)cc2Cl)cc1S(=O)(=O)Nc1c(C)cccc1C` [Compound 1127], the EC50 was in the range of 20 to 100 µM and the maximum response (Emax) was 123 to 159%.
For `N#Cc1ccc(C(=O)Nc2ccc(F)c(S(=O)(=O)Nc3ccc(Cl)cc3)c2)c(C(F)(F)F)n1` [Compound 827], in that order: 20 to 100 µM and 123 to 159%.
For `Cn1c(=O)n(C)c2cc(C(=O)Nc3ccc(F)c(S(=O)(=O)Nc4ccc(Cl)cc4)c3)ccc21` [Compound 1261], in that order: 20 to 100 µM and 123 to 159%.
For `O=C(Nc1ccc(F)c(S(=O)(=O)Nc2ccc(Cl)cc2)c1)c1cccc(-c2cncnc2)c1` [Compound 690], in that order: less than 10 µM and 160 to 199%.
For the compound `COc1ccc(NC(=O)c2n[nH]c3c2CCCC3)cc1S(=O)(=O)Nc1c(C)cccc1C` [Compound 1235], the EC50 was 10 to 20 µM and the Emax was in the range of 200 to 300%.
In the same order, the values of `COc1ccc(NC(=O)c2ccc3ocnc3c2)cc1S(=O)(=O)Nc1c(C)cccc1C` [Compound 1272] are 20 to 100 µM and 123 to 159%.
On to `COc1ccc(NC(=O)c2ccc3c(c2)ncn3C)cc1S(=O)(=O)Nc1c(C)cccc1C` [Compound 1228], for which the EC50 fell in the range of 20 to 100 µM and the Emax lay within 123 to 159%.
Regarding `COc1cnc(Cl)c(C(=O)Nc2ccc(OC)c(S(=O)(=O)Nc3c(C)cccc3C)c2)c1` [Compound 1072], the EC50 was 20 to 100 µM and the maximum response (Emax) lay within 160 to 199%.
For `COc1ccc(NC(=O)c2ccc3cn(C)nc3c2)cc1S(=O)(=O)Nc1c(C)cccc1C` [Compound 1362], in that order: 10 to 20 µM and 200 to 300%.
For `COc1ccc(NC(=O)c2cccc(-n3cnnn3)c2)cc1S(=O)(=O)Nc1c(C)cccc1C` [Compound 1259], the 50% effective concentration (EC50) lay in the range of 20 to 100 µM and the Emax fell in the range of 123 to 159%.
For `COc1ccc(NC(=O)c2ccc(C(F)(F)F)n2C)cc1S(=O)(=O)Nc1c(C)cccc1C` [Compound 1013], in that order: less than 10 µM and 123 to 159%.
For `COc1ccc(NC(=O)c2ccc(Br)nc2F)cc1S(=O)(=O)Nc1c(C)cccc1C` [Compound 1131], in that order: 20 to 100 µM and 123 to 159%.
Turning to `COc1cc(C(=O)Nc2ccc(F)c(S(=O)(=O)Nc3ccc(Cl)cc3)c2)cc(Cl)c1OC` [Compound 775], the concentration for a half-maximal effect (EC50) lay within 10 to 20 µM and the Emax lay within 123 to 159%.
For `O=C(Nc1cccc(S(=O)(=O)Nc2ccc(Cl)cc2)c1)c1ncc(-c2ccccc2)o1` [Compound 438], in that order: 10 to 20 µM and 123 to 159%.
For `COc1ccc(NC(=O)c2ccc(-c3ccccn3)s2)cc1S(=O)(=O)Nc1c(C)cccc1C` [Compound 1152], the EC50 is less than 10 µM and the Emax is 160 to 199%.
For `COc1ccc(-c2noc(C)c2C(=O)Nc2ccc(F)c(S(=O)(=O)Nc3ccc(Cl)cc3)c2)cc1` [Compound 838], in that order: 10 to 20 µM and 123 to 159%.
For `COc1ccc(NC(=O)c2csc(-c3ccccc3)n2)cc1S(=O)(=O)Nc1c(C)cccc1C` [Compound 1116], in that order: less than 10 µM and 160 to 199%.
For the compound `COc1ccc(NC(=O)c2ccccc2Oc2ccccc2)cc1S(=O)(=O)Nc1c(C)cccc1C` [Compound 1234], the half-maximal effective concentration (EC50) is less than 10 µM and the Emax lay in the range of 160 to 199%.
In the same order, the values of `COc1ccc(NC(=O)c2ccc(Cn3cc(Cl)cn3)cc2)cc1S(=O)(=O)Nc1c(C)cccc1C` [Compound 1237] are less than 10 µM and 160 to 199%.
In the same order, the values of `Cc1nccc(C(F)(F)F)c1C(=O)Nc1ccc(F)c(S(=O)(=O)Nc2ccc(Cl)cc2)c1` [Compound 734] are 10 to 20 µM and 123 to 159%.
Take `COc1ccc(NC(=O)c2c(C(F)(F)F)coc2C)cc1S(=O)(=O)Nc1c(C)cccc1C` [Compound 1111]: the EC50 lay within 10 to 20 µM and the maximal effect (Emax) is 160 to 199%.
For `CCc1ccc(NC(=O)c2cccc3ncn(C)c23)cc1S(=O)(=O)Nc1c(C)cccc1C` [Compound 1353], the concentration for a half-maximal effect (EC50) fell in the range of 10 to 20 µM and the Emax was 160 to 199%.
In the same order, the values of `COc1ccc(NC(=O)c2ccc(-c3ccc(F)cc3)cc2F)cc1S(=O)(=O)Nc1c(C)cccc1C` [Compound 1142] are less than 10 µM and 123 to 159%.

Source of the values: patent US20230174523A1, “BENZENESULFONAMIDE DERIVATIVES AS TRAP1 MODULATORS AND USES THEREOF” (Amathus Therapeutics, Inc., priority 2020, published 2023).
